Results from patent EP1038864A1, “NOVEL METALLOPROTEINASE INHIBITORS” (FUJI YAKUHIN KOGYO KABUSHIKI KAISHA, priority 1997, dated 1999).
Read-outs that look alike come from different tables or passages of the source.

Columns and labels:
[1] = molecular target: human fibroblast stromelysin (Homo sapiens, UniProt P08254); test: Assay for inhibition of stromelysin (fluorescein-labeled casein substrate); assay type: biochemical
Procedure: (§1) Described below are assays for biological activities of the compounds according to the present invention, formulations, dosage forms and dosage levels thereof, and miscellaneous matters. The efficacy of the compounds represented by the formula (I) according to the present invention as inhibitors of human fibroblast collagenase (metalloproteinase involved in the breakdown of tissues) is determined by a procedure based on the method of Y. Murawaki et al., Journal of Hepatology, 18, p328-334 (1993). The efficacy of the compounds (I) of this invention as inhibitors of human fibroblast stromelysin is determined by a procedure based on the method of S. S. Twining, Anal. Biochem., 143, p30 (1984). The assay results obtained are shown hereinbelow, together with biological examples which illustrate embodiments of the assay protocols.
The efficacy of compounds of the present invention to act as inhibitors of human fibroblast stromelysin was determined by the procedure of Twining (Anal. Biochem., 143, p.30, 1984), compared with a reference compound.
Prostromelysin was activated by incubation with 20 µg/ml human plasmin at 37°C for 2 hours, and the reaction was stopped by addition of 2.8 mg/ml aqueous diisopropyl fluorophosphate. The inhibition was assayed using, as a substrate, fluorescein-labeled casein. To a solution of the substrate (1 mg/ml) in a 50 mM Tris-HCl buffer, pH 7.8, containing 10mM aqueous calcium chloride was added the activated stromelysin. The resultant solution was incubated at 37°C for 2 hours. The digestion of the substrate with the enzyme was stopped by addition of 5% trichloroacetic acid. Undigested substrates were precipitated by centrifugation at 3000 x g for 20 minutes. The supernatant was collected, followd by additon of a 0.5M Tris-HCl buffer, pH 8.5. The fluorescence was read using an excitation wavelength of 495 nm and an emission wavelength of 520 nm. The inhibitory potency of the compounds was calculated. […] The resulting assay data for representative examples are shown in Table 2, compared with the reference compound.

[2] = molecular target: T1, human fibroblast collagenase (Homo sapiens, UniProt P03956); test: Assay for inhibition of collagenase (fluorescein-labeled bovine type I collagen substrate); assay type: biochemical
T1 sequence (P03956 100-469): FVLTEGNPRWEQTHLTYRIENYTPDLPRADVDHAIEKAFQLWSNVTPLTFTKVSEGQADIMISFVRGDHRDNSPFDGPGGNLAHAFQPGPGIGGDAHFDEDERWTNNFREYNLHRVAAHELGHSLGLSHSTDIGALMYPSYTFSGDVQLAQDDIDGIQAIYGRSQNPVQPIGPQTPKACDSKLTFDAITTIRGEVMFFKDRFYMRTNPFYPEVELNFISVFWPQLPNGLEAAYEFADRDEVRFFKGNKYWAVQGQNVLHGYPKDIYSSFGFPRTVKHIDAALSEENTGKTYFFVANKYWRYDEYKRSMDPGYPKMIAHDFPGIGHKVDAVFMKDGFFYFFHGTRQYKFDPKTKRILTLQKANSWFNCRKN
Procedure: as §1
The efficacy of compounds of the present invention to act as inhibitors of human fibroblast collagenase was determined by the procedure of Y. Murawaki et al. (Journal of Hepatology, 18, p.328-334, 1993), compared with a reference compound.
Procollagenase was activated by incubation with 2 mM 4-aminophenylmercuric acetate (APMA) at 35°C for 2 hours. The inhibition was assayed using, as a substrate, fluorescein-labeled bovine type I collagen. To a solution of the substrate (0.5 mg/ml) in a 50 mM Tris-HCl buffer, pH 7.5, containing 0.4M aqueous sodium chloride and 10 mM aqueous […] was added the activated collagenase. The resultant solution was incubated at 35°C for 2 hours. The digestion of the substrate with the enzyme was stopped by addition of 80 mM o-phenanthroline, followed by addition of a porcine elastase solution formed by dissolving 25 µg/ml porcine elastase in the aforementioned Tris-HCl buffer. The mixture was incubated at 37°C for 10 minutes. To the resulting solution was added 70% ethanol, and a 170 mM Tris-HCl buffer, pH 9.5, containing 0.67M aqueous sodium chloride. Undigested substrates were precipitated by centrifugation at 3000 x g for 20 minutes. The supernatant was collected and the fluorescence was read using an excitation wavelength of 495 nm and an emission wavelength of 520 nm. The inhibitory potency of the compounds was calculated. […] The resulting assay data for representative examples are shown in Table 1, compared with the reference compound. […]

[3] = molecular target: TNF-α Convertase (Homo sapiens, UniProt P78536); test: Assay for inhibition of TNF-α production in LPS-stimulated, PMA-differentiated U937 cells
Chain of TNF-α Convertase (P78536 215-824): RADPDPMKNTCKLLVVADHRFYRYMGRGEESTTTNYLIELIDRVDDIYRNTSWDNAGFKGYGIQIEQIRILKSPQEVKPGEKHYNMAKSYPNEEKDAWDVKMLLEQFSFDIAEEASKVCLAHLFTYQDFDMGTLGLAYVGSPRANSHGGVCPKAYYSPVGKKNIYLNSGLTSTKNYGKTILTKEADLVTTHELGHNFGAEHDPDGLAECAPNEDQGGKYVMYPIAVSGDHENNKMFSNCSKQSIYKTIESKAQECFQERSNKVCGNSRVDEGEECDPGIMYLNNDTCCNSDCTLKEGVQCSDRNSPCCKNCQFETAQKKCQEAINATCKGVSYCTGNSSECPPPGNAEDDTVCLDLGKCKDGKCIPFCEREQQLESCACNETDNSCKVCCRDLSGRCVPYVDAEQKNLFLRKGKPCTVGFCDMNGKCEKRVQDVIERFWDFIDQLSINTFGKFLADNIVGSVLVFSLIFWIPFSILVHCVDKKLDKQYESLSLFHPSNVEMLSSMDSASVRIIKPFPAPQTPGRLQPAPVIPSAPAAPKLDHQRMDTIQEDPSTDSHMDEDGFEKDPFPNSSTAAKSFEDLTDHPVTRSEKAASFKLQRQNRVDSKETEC
Procedure: Human monocytic leukemia cell line U937 (human histiocytic lymphoma cell line U937) cells were cultured in RPMI 1640 (Nissui Pharmaceutical Co., Ltd., Japan) supplemented with 5% fetal calf serum (FCS; IBL, Japan) in an incubator at 37°C under 5% CO2, then transferred to multiplates at a density of 1 x 10^6 cells/1 ml/well, and incubated overnight in the presence of 10^-7 M phorbol 12-myristate 13-acetate (Wako Pure Chemical Industries, Ltd., Japan) to form differentiated macrophage-like cells. To the resultant cells was added E. coli O127:B8 lipopolysaccaride (LPS, 0.1 µg/ml; Sigma) alone or along with each compound of the present invention, and the treated cells were then incubated for 6 hours in an incubator under 5% CO2 at 37°C. After the incubation, the cultures were collected and centrifuged at 3000 rpm for 10 minutes to give supernatants which were diluted with purified water and then assayed using a TNF-α assay kit, Genzyme (Table 3).

[4] = in vivo; settings: rat, po, 100 mg/kg
Procedure: Each compound of the present invention was dissolved in distilled water for injection and orally administered to rats (Lewis strain line, male, body weight: about 200 g) at a dose of 100mg/kg. From 30 minutes to 4 hours after the administration, a series of blood chronologically collected from rat fundus oculi were centrifuged (3000rpm for 10 minutes at 4°C) to give plasma samples. Each plasma sample (200 µl) was filtered through an ultrafiltration membrane by centrifugation at 1500 x G for 3 minutes using a micropartition UF unit (Centrifree-MPS-3: 30,000 MW cut-off, Amicon Corp., Beverly, MA). […] The reaction was stopped by adding 900 µl of 3% aqueous acetic acid to the reaction mixture. The fluorescence of the resulting solution was read using an excitation wavelength of 325 nm and an emission wavelength of 393 nm. The concentration of each test compound in rat plasma samples was calculated using a standard curve which was prepared based on a variety of doses.

[5] = plasmin-activated human fibroblast prostromelysin, 37°C, 2 hours, pH 7.8, read-out: Inhibition of MMP-3
[6] = activated human fibroblast procollagenase, 35°C, 2 hours, pH 7.5, read-out: Inhibition of MMP-1
[7] = read-out: Inhibition of MMP-3, plasmin-activated human fibroblast prostromelysin, 37°C, 2 hours, pH 7.8

Chain of human fibroblast stromelysin (P08254 100-477): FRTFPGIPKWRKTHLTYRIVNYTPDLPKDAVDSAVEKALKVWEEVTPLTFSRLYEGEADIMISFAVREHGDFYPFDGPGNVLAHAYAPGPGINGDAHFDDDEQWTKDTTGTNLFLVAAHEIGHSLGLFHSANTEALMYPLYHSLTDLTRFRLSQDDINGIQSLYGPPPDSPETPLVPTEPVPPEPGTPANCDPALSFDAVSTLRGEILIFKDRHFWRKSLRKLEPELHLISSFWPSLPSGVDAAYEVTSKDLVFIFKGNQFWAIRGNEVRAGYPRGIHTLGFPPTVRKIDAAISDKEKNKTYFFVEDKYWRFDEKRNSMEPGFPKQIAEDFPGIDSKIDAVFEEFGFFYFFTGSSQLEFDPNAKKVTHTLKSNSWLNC

Compound | IC50 [2, 6] [nM] | IC50 [3] [nM] | further results
CNC(=O)C(CCCNC(=N)N)NC(=O)C(CC(C)C)C(Cc1ccc(CN2C(=O)c3ccccc3C2=O)cc1)C(=O)NO (single isomer, unassigned) [Compound No. 51, N^a-[4-(Hydroxyamino)-2(R)-isobutyl-3(R or S)-(p-phthalimidomethylbenzyl)succinyl]-L-arginine N-methylamide · 1 acetate] | 9 | 426 | IC50 [1, 5]: 2 nM
CNC(=O)[C@H](CCCNC(=N)N)NC(=O)[C@H](CC(C)C)C(CC(C)C)C(=O)NO (single isomer, unassigned) [Compound No. 24, N^a-[4-(Hydroxyamino)-2(R),3(R or S)-diisobutylsuccinyl]-L-arginine N-methylamide · 1 acetate] | – | 480 | IC50 [1]: 18 nM; IC50 [2]: 5 nM
CC(=N)NCCCCC(NC(=O)C(CC(C)C)C(CCCc1ccccc1)C(=O)NO)C(=O)NCCO (single isomer, unassigned) [Compound No. 36, N^a-[4-(Hydroxyamino)-2(R)-isobutyl-3(R or S)-(3-phenylpropyl)-succinyl]-N^e-acetimidoyl-L-lysine N-(2-hydroxyethyl)amide · 1 acetate] | 14 | – | IC50 [1, 5]: 9 nM
CCCCOCCC(C(=O)NO)[C@@H](CC(C)C)C(=O)N[C@@H](CCCCN)C(=O)NC (single isomer, unassigned) [Compound No. 69, N^a-[4-(Hydroxyamino)-2(R)-isobutyl-3(R or S)-(2-n-butyloxyethyl)succinyl]-L-lysine N-methylamide· 1 acetate] | – | – | IC50 [1, 7]: 20 nM; AUC at 4 h [4]: 3340 ng·h/mL
CNC(=O)C(CCCNC(=N)N)NC(=O)C(CC(C)C)C(Cc1ccc(CNS(=O)(=O)c2ccc(C)cc2)cc1)C(=O)NO (single isomer, unassigned) [Compound No. 50, N^a-[4-(Hydroxyamino)-2(R)-isobutyl-3(R or S)-[p-(p-toluenesulfonamidomethyl)benzyl]succinyl]-L-arginine N-methylamide · 1 acetate] | 13 | 599 | IC50 [1, 5]: 9 nM
CNC(=O)C(Cc1ccc(CN)cc1)NC(=O)C(CC(C)C)C(C)C(=O)NO [Compound No. 23, N^a-[4-(Hydroxyamino)-2(R)-isobutyl-3(RS)-methylsuccinyl]-4'-aminomethyl-L-phenylalanine N-methylamide · 1 acetate] | – | 1190 | IC50 [1]: 16 nM; AUC at 4 h [4]: 4760 ng·h/mL
CNC(=O)[C@H](CCCCN)NC(=O)[C@H](CC(C)C)C(CCCc1cccc(C(=O)OC)c1)C(=O)NO (single isomer, unassigned) [Compound No. 71, N^a-[4-(Hydroxyamino)-2(R)-isobutyl-3(R or S)-[3-(m-methoxycarbonylphenyl)propyl]succinyl]-L-lysine N-methylamide· 1 acetate] | 4 | 352 | –
CNC(=O)C(CCNC(=N)N)NC(=O)C(CC(C)C)C(CC(C)C)C(=O)NO [Compound No. 27, N^4-[3-Guanidino-1(S)-methylcarbamoylpropyl]-N^1-hydroxy-3(R),2(RS)-diisobutylsuccinamide · 1 acetate] | 7 | – | IC50 [1, 5]: 60 nM
CNC(=O)C(CCCN)NC(=O)C(CC(C)C)C(CCCc1ccc(CNC(=N)N)cc1)C(=O)NO (single isomer, unassigned) [Compound No. 81, N^a-[4-(Hydroxyamino)-2(R)-isobutyl-3(R or S)-[3-(p-guanidomethylphenyl)propyl]succinyl]-L-ornithine N-methylamide · 2 acetate] | 13 | 737 | –
CNC(=O)[C@H](CCCCN)NC(=O)[C@H](CC(C)C)C(CCCc1ccc(CN)cc1)C(=O)NO (single isomer, unassigned) [Compound No. 61, N^a-[4-(Hydroxyamino)-2(R)-isobutyl-3(R or S)-(3-(p-aminomethylphenyl)propyl]succinyl]-L-lysine N-methylamide· 2 acetate] | – | – | IC50 [1, 7]: 23 nM; AUC at 4 h [4]: 13800 ng·h/mL; IC50 ([3]; read-out: Inhibition of TACE, U937 cells, LPS 0.1 µg/ml, 6 hours, TNF-α in supernatant by assay kit): 1100 nM
CNC(=O)C(CCNC(=N)N)NC(=O)C(CC(C)C)C(C)C(=O)NO (single isomer, unassigned) [Compound No. 28, N^4-[3-Guanidino-1(S)-methylcarbamoylpropyl]-N^1-hydroxy-3(R)-isobutyl-2(R or S)-methylsuccinamide · 1 acetate] | 10 | – | –
CNC(=O)C(CCCNC(=N)N)NC(=O)C(CC(C)C)C(C)C(=O)NO [Compound No. 25, N^a-[4-(Hydroxyamino)-2(R)-isobutyl-3(RS)-methylsuccinyl]-L-arginine N-methylamide · 1 acetate] | 10 | – | –
CCCOC[C@H](C(=O)N[C@@H](Cc1ccc(OC)cc1)C(=O)NC)[C@H](CSC(C)C)C(=O)NO [Reference Compound No. 1, N-[4-(N-hydroxyamino)-2(R)-n-propyloxymethyl-3(S)-isopropyl-thiomethylsuccinyl)-O-methyl-L-tyrosine-N-methylamide, reference compound] | 11 | – | –
CNC(=O)[C@H](CCN)NC(=O)[C@H](CC(C)C)C(CCCc1ccc(CN)cc1)C(=O)NO (single isomer, unassigned) [Compound No. 78, N^4-[3-Amino-1(S)-methylcarbamoylpropyl)-N^1-hydroxy-2(R or S)-[3-(p-aminomethylphenyl)propyl]-3(R)-isobutylsuccinamide· 2 acetate] | 18 | – | –
CNC(=O)[C@@H](NC(=O)[C@H](CC(C)C)[C@H](O)C(=O)NO)C(C)(C)C [Reference Compound No. 2, reference compound] | – | – | AUC at 4 h [4]: 1570 ng·h/mL
CNC(=O)[C@H](CCCCN)NC(=O)[C@H](CC(C)C)C(CCCc1ccc(O)cc1)C(=O)NO (single isomer, unassigned) [Compound No. 72, N^a-[4-(Hydroxyamino)-2(R)-isobutyl-3(R or S)-[3-(p-hydroxyphenyl)propyl]succinyl]-L-lysine N-methylamide· 1 acetate] | – | 250 | AUC at 4 h [4]: 4040 ng·h/mL
CNC(=O)[C@H](CCCCN)NC(=O)[C@H](CC(C)C)C(CCCN1CCOCC1)C(=O)NO (single isomer, unassigned) [Compound No. 73, N^a-[4-(Hydroxyamino)-2(R)-isobutyl-3(R or S)-[3-(morpholin-4-yl)propyl]succinyl]-L-lysine N-methylamide· 1 acetate] | 11 | – | –
CNC(=O)C(CCCCNC(C)=N)NC(=O)C(CC(C)C)C(CCCc1ccccc1)C(=O)NO [Compound No. 30, N^a-[4-(Hydroxyamino)-2(R)-isobutyl-3(RS)-(3-phenylpropyl)-succinyl]-N^e-acetimidoyl-L-lysine N-methylamide · 1 acetate] | 10 | – | IC50 [1]: 12 nM
